Measured values: patent publication US20150236379A1, “ADDITIVES FOR GALVANIC CELLS” (ROCKWOOD LITHIUM GMBH, priority 2012, published 2015)
Where two headings read alike, the source gives them in different places.

Tests used:
[1] = Solubility in conventional battery solvents; assay type: physicochemical
Excerpt: This was not to be expected, since it is known that many Cs salts having large, weakly coordinating anions are relatively poorly soluble in water (A. Nadjafi, Microchim. Acta 1973, 689-696).
The abbreviation BOB stands for bis-(oxalato)borate (C4O8B)^−, BMB for bis-(malonato)borate (C6H4O8B)^−, NMP for N-methylpyrrolidone, EC for ethylene carbonate, DMC for dimethyl carbonate, EMC for ethyl methyl carbonate and PC for propylene carbonate.

[2] = Thermal stability, thermogravimetric experiment under argon flow; assay type: physicochemical
Procedure: In a 1-L round-bottom glass flask, 38.67 g boric acid and […] oxalic acid dihydrate were suspended in 121 g water. 102.9 g cesium carbonate was added in portions, with magnetic stirring (vigorous foaming due to CO2 generation). After the addition was complete, the white suspension was evaporated on a rotary evaporator, initially at 100° C. and 400 mbar. The colorless solid residue was then ground and subjected to final drying at 180° C. and 20 mbar for 3 h. • Yield: 197.3 g of colorless powder (97% of theoretical) • Cs content: 41.0% • […] ^11B=7.4 ppm (solution in DMSO-d6) • Thermal stability: 290° C. (onset of thermal decomposition in the thermogravimetric experiment under argon flow)

[3] = Cs content (FES) in filtered electrolyte solution after stirring with excess additive; assay type: physicochemical; conditions: stirred 24 h, membrane filtered
Procedure: (§1) In an Ar-filled glove box, 10 g of an 11 wt.-% LiBOB solution in ethylene carbonate/ethylmethyl carbonate (1:1, wt./wt.) was mixed with 0.32 g CsBOB and magnetically stirred for 24 h. The suspension was then filter-clarified by membrane filtration ([…] PTFE). • Cs content (FES) in the electrolyte solution: 0.05 wt.-%
as §1, with “a 10 wt-% […]” for “an 11 wt.-% LiBOB”, “0.47” for “0.32”, “CsClO4” for “CsBOB”, “0.07” for “0.05”

[4] = Additive salt solubility in lithium conducting salt electrolyte solutions
[5] = cited from earlier work
[6] = supporting electrolyte LiBOB, 10% EC/EMC
[7] = supporting electrolyte LiPF6, 10% EC/EMC

Compound | Solubility [1] [mM] | Solubility (Wt. %) [1] [Wt. %] | Solubility ([1]; solvent EC/DMC (1:1)) [mM] | Solubility (Wt. %) ([1]; solvent EC/DMC (1:1)) | Solubility ([1]; solvent NMP) [mM] | Solubility (Wt. %) ([1]; solvent NMP) | Solubility ([1]; solvent PC) [mM] | Solubility (Wt. %) ([1]; solvent PC) | Thermal stability (onset of thermal decomposition) [2] [°C] | Cs content (FES) in the electrolyte solution ([3]; 11 wt.-% LiBOB in EC/EMC (1:1, wt./wt.)) [wt.-%] | Additive Salt Solubility [4, 6] [mM] | Additive Salt Solubility (wt.-%) [4, 6] [wt.-%] | Additive Salt Solubility [4, 7] [mM] | Additive Salt Solubility (wt.-%) [4, 7] [wt.-%] | Cs content (FES) in the electrolyte solution ([3]; 10 wt-% LiPF5 in EC/EMC (1:1, wt./wt.)) [wt.-%] | solubility in water ([5]; 0° C.) [g/100 mL] | solubility in water ([5]; 25° C.) [g/100 mL]
O=C1CC(=O)O[B-]2(O1)OC(=O)CC(=O)O2.[Cs+] [CsBMB] | 50 | 1.8 |  |  |  |  |  |  |  |  |  |  |  |  |  |  | 
O=C1O[B-]2(OC1=O)OC(=O)C(=O)O2.[Cs+] [CsBOB, Cesium bis(oxalato)borate] |  |  | 70 | 1.8 | 270 | 7.9 | 60 | 1.5 | 290 | 0.05 | 4 | 0.12 | 40 | 1.2 |  |  | 
[Cs+].[O-][Cl+3]([O-])([O-])[O-] [CsClO4, cesium perchlorate] |  |  |  |  |  |  | 70 | 1.3 |  |  | 5 | 0.12 | 40 | 0.9 | 0.07 | 0.8 | 1.97
O=C1O[B-]2(OC1=O)OC(=O)C(=O)O2.[Rb+] [RbBOB] | 30 | 0.64 |  |  |  |  |  |  |  |  | 1 | 0.03 | 40 | 1.2 |  |  | 
